Data set [1] relates to Newman S. aureus. Kind of data set: Rat triceps infection versus sterile inflammation (heat-killed S. aureus). Format: in vivo. Particulars: right triceps infected, left triceps heat-killed S. aureus. The protocol:
One of the main limitations of using FDG to image infection is that FDG accumulates in the mammalian cells involved in the inflammatory response to infection. It was analyzed how inflammation affected the biodistribution of [^18F]F-PABA by generating an inflammatory response using 50 μL of […] of Newman S. aureus heat-killed bacteria.
accumulation of [^18F]F-PABA at the site of infection is likely not due to uptake by cells involved in the inflammatory response.

Data set [2] has as its system Newman S. aureus. Nature of the data set: Rat triceps S. aureus infection model, PET imaging and ex vivo counting. Format: in vivo. The procedure:
Initial in vivo studies focused on soft tissue models of MSSA infection. This included a mouse thigh infection model and rat triceps model. […] Fifty μL of 10^9 CFU of Newman S. aureus BHI culture was injected into the right triceps of a rat. After 10-15 hr the rats were imaged following iv administration of 0.8-1.2 mCi of [^18F]F-PABA. The images clearly show the accumulation of radioactivity in the right but not the left triceps. In addition to monitoring the time course of [^18F]F-PABA biodistribution, we also quantified tracer levels by postmortem ex vivo counting. […] At 60 min tracer levels were 5.4× higher in the infected right triceps compared to the uninfected left triceps. This compares favorably with other tracers.

Data set [3] has as its system E. coli. Kind of data set: Uptake of [18F]F-PABA by bacteria. The format is cell-based. The text has this:
(§1) The ability of different bacterial species to take up [^18F] F-PABA was studied. The radiotracer accumulated in both methicillin sensitive S. aureus (MSSA, Newman) and methicillin-resistant S. aureus (MRSA), as well as the Gram negative bacteria E. coli and Klebsiela pneumoniae.

The subject of data set [4] is Klebsiela pneumoniae. Nature of the data set: Uptake of [18F]F-PABA by bacteria. The format is cell-based.
From the text: as §1

Data set [5] has as its system methicillin-resistant S. aureus (MRSA). Nature of the data set: Uptake of [18F]F-PABA by bacteria. The format is cell-based.
From the text: as §1

Data set [6] concerns methicillin sensitive S. aureus (MSSA, Newman). Nature of the data set: Uptake of [18F]F-PABA by bacteria. The format is cell-based.
From the text: as §1
(§2) In contrast, [^18F]F-PABA was not taken up by Enterococcus faecalis. E. faecalis has a folate salvage pathway and can take up folate from the environment. Thus, folic acid biosynthesis is dispensable in this organism, which also explains why sulfonamides are not used to treat infection by E. faecalis.

The test system of data set [7] is Enterococcus faecalis. Kind of data set: Uptake of [18F]F-PABA by bacteria. The format is cell-based.
From the text: as §2

Data set [8] deals with S. aureus. Kind of data set: Rat triceps infection, tracer accumulation and bacterial load under vancomycin treatment. The text has this: A key goal is to identify a tracer that can be used to quantify bacterial load and monitor the change in bacterial load during and following antibiotic treatment.
Data set [9] concerns several bacterial species. Kind of data set: Antibacterial activity for several bacterial species. The format is cell-based.
Data set [10] relates to Vero cells. Nature of the data set: Cytotoxicity for Vero cells. The format is cell-based. The protocol: (§3) Expressed and purified dihydropteroate synthase (DHPS) from S. aureus (saDHPS) was cloned. DHPS is the enzyme that installs PABA (p-aminobenzoic acid) in the folate biosynthesis pathway (Scheme 2). […] Using a coupled assay, it was determined that the kinetic parameters for saDHPS with PABA, PAS and F-PABA. […] Since PAS is an antibacterial compound whose mechanism of action may be related for the ability of this compound to compete with PABA for DHPS, we determined the antibacterial activity and cytotoxicity of F-PABA for several bacterial species as well as Vero cells. In each case no growth inhibition was observed up to 200 μg/ml.

Data set [11] has as its system M. tuberculosis. Kind of data set: MIC determination (antibacterial activity). Format: cell-based. As to conditions: Mycobacterium tuberculosis. The procedure: as §3
In data set [12] the test system is E. coli. Nature of the data set: MIC determination (antibacterial activity). Format: cell-based. As to conditions: Escherichia coli. The protocol: as §3
In data set [13] the test system is S. aureus. Nature of the data set: MIC determination (antibacterial activity). The format is cell-based. As to conditions: Staphylococcus aureus. The procedure: as §3
Data set [14] has as its target T1, dihydropteroate synthase (DHPS) from S. aureus (saDHPS) (Staphylococcus aureus, UniProt O05701).
T1 construct: made in house
Nature of the data set: Coupled assay, kinetic parameters for saDHPS. Format: biochemical. The procedure: as §3

The mark [15] stands for this setting: after a further 3 doses of vancomycin.

Structures are written as SMILES.

T1 sequence (O05701 whole entry): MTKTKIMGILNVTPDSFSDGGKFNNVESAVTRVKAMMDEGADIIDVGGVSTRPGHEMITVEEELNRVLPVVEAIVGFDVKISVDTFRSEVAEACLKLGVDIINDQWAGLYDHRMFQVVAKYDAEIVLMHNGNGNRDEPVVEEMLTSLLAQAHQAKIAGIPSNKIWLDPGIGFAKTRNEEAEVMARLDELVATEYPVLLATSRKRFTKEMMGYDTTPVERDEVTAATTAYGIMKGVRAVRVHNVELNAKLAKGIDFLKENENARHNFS

On to `Nc1ccc(C(=O)O)c([18F])c1` [[^18F]F-PABA, 4-Amino-2-[^18f]-fluorobenzoic acid], for which the “radiotracer levels at site of infection compared to site of sterile inflammation” value in data set [1] amounted to 10 fold. For the same molecule, the “tracer levels in infected right triceps compared to uninfected left triceps” value in data set [2] (iv 0.8-1.2 mCi, at 60 min) worked out at 5.4 ×. For the same molecule, the biodistribution of tracer result in data set [2] (iv, postmortem ex vivo counting) was “distributed to all tissues and organs with the exception of the brain”. The uptake of radiotracer entry in data set [3] is recorded as “accumulated”; in data set [4] it was “accumulated”; in data set [5] it was “accumulated”; in data set [6] (heat-killed MSSA cells), “unable to take up”; in data set [6] (viable MSSA (Newman)), “accumulated”; in [7], “not taken up”. In addition, the “tracer accumulation in infected triceps” value in data set [8] (after 3 doses of vancomycin) stood at 0.015±0.005 %1D/cc; in data set [8] (setting [15]) it was 0.013±0.002 % 10/cc; in data set [8] (before treatment), 0.051±0.008 %1D/cc. For the same molecule, in data set [8] (after 3 doses of vancomycin versus before treatment), the “decrease in tracer levels” value is given as around 3 fold. Also, the “tracer levels in the uninfected triceps” value in data set [8] (uninfected triceps) was 0.007±0.001 %1D/cc.

`CN[C@H](CC(C)C)C(=O)N[C@H]1C(=O)N[C@@H](CC(N)=O)C(=O)N[C@H]2C(=O)N[C@H]3C(=O)N[C@H](C(=O)N[C@H](C(=O)O)c4cc(O)cc(O)c4-c4cc3ccc4O)[C@H](O)c3ccc(c(Cl)c3)Oc3cc2cc(c3O[C@@H]2O[C@H](CO)[C@@H](O)[C@H](O)[C@H]2O[C@H]2C[C@](C)(N)[C@H](O)[C@H](C)O2)Oc2ccc(cc2Cl)[C@H]1O` [vancomycin, reference compound]: the results for the “bacterial burden of infected triceps” value in data set [8] (after 3 doses of vancomycin) and in data set [8] (setting [15]) were 8.1±0.3 Log10 CFU and 7.0±0.9 Log10 CFU, respectively. In addition, in [8] (after 3 doses of vancomycin), the “decrease in bacterial burden” value was around 3 logs. Moreover, the “additional decrease in bacterial burden” value in [8] (further 3 doses of vancomycin) worked out at 1 log.

Broadly, the MIC is the smallest concentration in the dilution series that meets the test's criterion for growth inhibition. In the case of `Nc1ccc(C(=O)O)c(F)c1` [2-F-PABA, 2-fluoro-4-aminobenzoic acid], the MIC in data set [9] (discussion, species not named) was above 100 µg/mL; in data set [11], above 100 µg/mL; in [12] it was above 200 µg/mL; in [13] it was above 200 µg/mL. In addition, the “concentration up to which no growth inhibition was observed” value in data set [9] (several bacterial species) is above 200 µg/mL. The antibacterial activity entry in [9] (summary of Table 1) was “no antibacterial activity”. Further, the “concentration up to which no growth inhibition was observed (cytotoxicity)” value in data set [10] was above 200 µg/mL. Also, in data set [14], the “substrate for saDHPS” value is “alternative substrate for saDHPS”.

The values are drawn from patent US20240115221A1, “POSITRON IMAGING TOMOGRAPHY IMAGING AGENT C[…] METHOD FOR BACTERIAL INFECTION” (The Research Foundation for the State University of New York, priority 2016, published 2024).
